SMILES strings stand for the structures. Read-outs that look alike come from different tables or passages of the source.

The text below walks through data of patent publication US10420761B2, “Allosteric inhibitors of thymidylate synthase” (UNIVERSITY OF FLORIDA RESEARCH FOUNDATION, INCORPORATED, priority 2013, dated 2019).

Data set [1] concerns small cell lung cancer cell line H1607. Briefly: MTS cell viability assay, H1607. Format: cell-based. As to conditions: Homo sapiens, SCLC, 72-hour incubation, unit inferred. The protocol:
(§1) Antiproliferative effects of 27 novel TS inhibitors were tested by MTS assay (Promega) in human cancer cell lines representing several major tumor types known to overexpress TS including lung, cervical, pancreatic and hematopoietic tumors. Six compounds (S, U, P, M, G and J) reduced cell viability by more than 40% in both human cervical cancer HeLa (FIG. 6) and myelogenous leukemia K562 cell lines (FIG. 7).
(§2) Complete dose response relationships for five most promising compounds (P, U, S, M and G) have been established in pancreatic neuroendocrine cancer, pancreatic ductal cancer and small cell lung cancer cell lines (Table 3). […] In pancreatic neuroendocrine tumors Bon1 and CM—the range was larger with GI50 values within 0.1-100 μM (FIGS. 10, 11). Such discrepancy in response to drugs between Bon1 and CM cells can be explained at least in part by different tumor type of these cells. CM cells were derived from insulinoma, a typical beta cell tumor that secrets insulin while Bon cells are carcinoid tumors derived from lymph nodes that produce serotonin.
(§3) 27 top scoring compounds that were identified by in silico screening were tested in human cancer cell lines. Cancer cell lines used for inhibitor testing were maintained under 70% confluency in appropriate cell culture medium (typically DMEM, supplemented with 10% FBS, and 1% pen-strep). Small molecule compounds were obtained from NCI DTP, resuspended in DMSO to generate 50 mM stocks and stored in the dark. In all experiments, fresh compound preparations were used whenever possible and no more than 2 freeze-thaw cycles were allowed for all drug tested. Cells were seeded in 96-well plates in quadruplicates (4 wells/condition) at 4000 cells/well. Compound solutions were freshly prepared in the appropriate cell culture medium and were added the following morning to the cells. After 72-hour incubation with the compound, cell proliferation was measured by MTS assays (Promega) and compared to that of the untreated cells or control drug, such as 5-FU or pemetrexed. Dose-response parameters were determined by plotting percent cell proliferation after treatment from at least eight different compound concentrations and by using non-linear regression fit (4-parameter dose-response) in Sigmaplot. All results shown are representative of at least 3 independent experiments.
A general note: Tetrazolium assays rely on reduction of a dye to a coloured formazan, in cell work by metabolically active cells.

For data set [2], the system named is small cell lung cancer cell line H1048. Briefly: MTS cell viability assay, H1048. The format is cell-based. As to conditions: Homo sapiens, NCI-H1048. On the procedure: as §1, §2, §3
For data set [3], the system named is pancreatic neuroendocrine cell line CM (insulinoma). The experiment in a line: MTS cell viability assay, CM. Format: cell-based. The protocol: as §1, §2, §3
Data set [4] deals with pancreatic neuroendocrine cell line Bon1. Briefly: MTS cell viability assay, Bon-1. Format: cell-based. The protocol:
as §1, §2, §3

Data set [5] has as its system pancreatic ductal adenocarcinoma cell line Miapaca-2. The experiment in a line: MTS cell viability assay, MiaPaca-2. Format: cell-based. As to conditions: Homo sapiens, MIA PaCa-2, PDAC, 72-hour incubation, unit inferred. On the procedure:
as §1, §2, §3

In data set [6] the test system is pancreatic ductal adenocarcinoma cell line Panc-1. Briefly: MTS cell viability assay, Panc-1. Format: cell-based. As to conditions: Homo sapiens, PDAC, 72-hour incubation, unit inferred. On the procedure: as §1, §2, §3
For data set [7], the system named is mouse histiocytic sarcoma cell line 5278mHS (p16 deletion, activated hTS). Briefly: MTS cell viability assay, mouse histiocytic sarcoma. The format is cell-based. On the procedure:
(§4) We also tested the compounds S, U and P in mouse histiocytic sarcoma cell line that was derived from genetically engineered mouse model with p16 deletion and activated hTS overexpression. […] Dose-response curves and GI50 values for all compounds tested can be found in Table 3 and FIGS. 8-13.
as §3

Data set [8] concerns human cancer cell lines. Briefly: MTS cell viability assay, statements over several cell lines. The format is cell-based. As to conditions: for GI50: Homo sapiens. On the procedure: as §1, §2, §4, §3
Data set [9] in a line: in vivo. On the procedure:
(§5) SCID immunodeficient mice were i.p. injected daily for 3 weeks and kept under observation for one additional week. Animals' weights were measured daily and the data is presented as the percentage of weight change from day 1 of treatment to day 28 at the termination of the experiment (Table 4). FVB.129 immunocompetent mice were i.p. injected daily for 2 weeks and kept under observation for one additional week. Animals' weights were measure daily and the data is presented as the percentage of weight change from day 1 of treatment to day 21 at the termination of the experiment (Table 5).
as §5, with “The SCID immunodeficient” for “SCID immunodeficient”, “the data are presented as” for “the data is presented as”, “(Table 4). […] The FVB.129 immunocompetent” for “(Table 4). FVB.129 immunocompetent”, “weights were measured daily and” for “weights were measure daily and”

Data set [10] is classed as in vivo. The protocol: as §5, with “To establish the maximum tolerated dose (MTD) for most promising new inhibitors, both immunodeficient SCID and immunocompetent FVB.129 mice were treated daily with compound S and methylated version of compound S at 12.5, 50, and 100 MKG (mg/kg) by i.p. injection (Tables 4 and 5). SCID” for “SCID”
The SCID immunodeficient mice were i.p. injected daily for 3 weeks and kept under observation for one additional week. Animals' weights were measured daily and the data are presented as the percentage of weight change from day 1 of treatment to day 28 at the termination of the experiment (Table 4). The MTD for SCID mice for both compounds was 50 MKG. The FVB.129 immunocompetent mice were i.p. injected daily for 2 weeks and kept under observation for one additional week. Animals' weights were measured daily and the data are presented as the percentage of weight change from day 1 of treatment to day 21 at the termination of the experiment (Table 5). […] Thus, we have identified a derivative of compounds S that is less toxic to immunocompetent FVB.129 mice.

Where [11] appears, read: SCLC, 72-hour incubation, MTS, unit inferred, read-out: GI50 H1048.
Setting [12] is: PNET, 72-hour incubation, MTS, unit inferred, read-out: GI50 CM.
Setting [13] is: PNET, 72-hour incubation, MTS, unit inferred, read-out: GI50 Bon-1.
[14] abbreviates: mouse histiocytic sarcoma cell line, range over compounds S, U and P, read-out: GI50 values from.
The mark [15] stands for this setting: mouse histiocytic sarcoma, MTS, unit inferred, read-out: GI50 5278mHS.
The mark [16] stands for this setting: NCI-H1048, range over small cell lung cancer cell lines H1607 and H1048 and the five compounds, read-out: GI50 values in the range.
Where [17] appears, read: range over pancreatic ductal adenocarcinoma cell lines Miapaca-2 and Panc-1 and the five compounds, read-out: GI50 values between.
The mark [18] stands for this setting: up to, over the tested cell lines.

What is called GI50 is the concentration that inhibits growth by half. Regarding `CCc1nc(N)nc(N)c1-c1ccc(N(C)Cc2ccccc2)c([N+](=O)[O-])c1` [Compound S, 5-[4-[benzyl(methyl)amino]-3-nitrophenyl]-6-ethylpyrimidine-2,4-diamine], the GI50 in data set [1] is 8.2 µM; in data set [2] (H1048 (SCLC), read-out: GI50), 0.096 µM; in data set [2] (setting [11]), 0.096 µM; in data set [3] (CM (insulinoma), read-out: GI50) it was 0.093 µM; in [3] (setting [12]), 0.093 µM; in data set [4] (Bon1 cells, read-out: GI50) it was 100 µM. Besides, the GI50 is 100 µM in data set [4] (setting [13]); 0.48 µM in data set [5]; 0.93 µM in data set [6]; 0.4 to 20 µM in [7] (setting [14]); 0.42 µM in data set [7] (setting [15]); 0.09 to 29 µM in data set [8] (setting [16]). The GI50 in data set [8] (setting [17]) lay in the range of 0.5 to 24 µM. Moreover, the “fold lower GI50 than 5-FU” value in data set [8] (setting [18]) is “up to 169 fold”. In addition, in [8] (setting [18]), the “fold lower GI50 than pemetrexed” value is “up to 416 fold”. Further, in data set [9] (SCID mice, 100 MKG i.p. daily, single mice), the “animal found dead, D2” value is given as “FDN”. In data set [9] (SCID, mouse, in vivo, ip, MTD), this molecule returned an MTD at 3 weeks of at least 50 mg/kg. Moreover, in data set [10] (FVB.129 mice, 50 MKG i.p. daily, single mice), the “animal found dead, D6” value is “FDN”. The “animal found dead, D5” value in [10] (FVB.129 mice, 100 MKG i.p. daily, single mice) is recorded as “FDN”. The “day after treatment at which animals died” value in data set [10] (FVB.129, mouse, in vivo, ip, 2 weeks) came out at 6 days.
As to `O=c1[nH]cc(F)c(=O)[nH]1` [Compound 5-FU, 5-fluorouracil, reference compound], the GI50 in data set [1] turned out to be 36 µM; in data set [2] (setting [11]), 2.3 µM; in data set [3] (setting [12]), 16 µM; in [4] (setting [13]) it was 7.6 µM; in [5] it was 8.1 µM; in data set [6], 11 µM.
For `CCN(CC)C1=CC(=O)/C(=N/Nc2cc(Br)ccn2)C=C1` [U, (E)-6-(2-(4-bromopyridin-2-yl)hydrazono)-3-(diethylamino)cyclohexa-2,4-dienone], the concentration for 50% growth inhibition (GI50) in data set [1] came to 2.5 µM; in data set [2] (setting [11]) it was 3.1 µM; in data set [3] (setting [12]), 13 µM; in [4] (setting [13]), 2.4 µM; in data set [5], 12 µM; in [6] it was 1.3 µM. The GI50 in data set [7] (setting [14]) was 0.4 to 20 µM; in data set [7] (setting [15]), 21 µM; in data set [8] (setting [16]), 0.09 to 29 µM; in data set [8] (setting [17]), 0.5 to 24 µM.
Turning to `COc1ccc(Cc2c[nH]cc3c(=O)c(OC)ccc2-3)cc1O` [Compound M, 4-(3-hydroxy-4-methoxybenzyl)-7-methoxyisoquinolin-8(2H)-one], the GI50 in data set [1] was 2.6 µM; in [2] (setting [11]), 16 µM; in data set [3] (setting [12]), 29 µM; in [4] (setting [13]), 26 µM; in [5], 24 µM; in [6], 15 µM. In addition, the concentration for 50% growth inhibition (GI50) lay in the range of 0.09 to 29 µM in [8] (setting [16]) and 0.5 to 24 µM in data set [8] (setting [17]).
For `CN(Cc1ccoc1)Cc1nnc(SCCOc2ccccc2)n1C` [Compound G, 1-(furan-3-yl)-N-methyl-N-((4-methyl-5-((2-phenoxyethyl)thio)-4H-1,2,4-triazol-3-yl)methyl)methanaminium], the GI50 in [1] was 29 µM; in [2] (setting [11]), 4.3 µM; in data set [3] (setting [12]), 32 µM; in data set [4] (setting [13]), 0.39 µM; in [5], 9.7 µM; in data set [6], 15 µM. Moreover, the concentration for 50% growth inhibition (GI50) in data set [8] (setting [16]) was in the range of 0.09 to 29 µM; in [8] (setting [17]), 0.5 to 24 µM.
Consider `Nc1nc2[nH]cc(CCc3ccc(C(=O)N[C@@H](CCC(=O)O)C(=O)O)cc3)c2c(=O)[nH]1` [Pemetrexed, pemetrexed, reference compound], for which the GI50 in data set [1] is over 200 µM; in data set [2] (setting [11]), 0.13 µM; in [3] (setting [12]), 0.087 µM; in data set [4] (setting [13]), over 200 µM; in [5] it was over 200 µM; in data set [6], over 200 µM.
`O[C@@H](c1cc(C(F)(F)F)nc2c(C(F)(F)F)cccc12)C1CCCCN1` (stereo partly drawn) [P, (1S)-(2,8-bis(trifluoromethyl)quinolin-4-yl)(piperidin-2-yl)methanol]: the GI50 in [1] turned out to be 8.6 µM; in data set [2] (setting [11]), 16 µM; in data set [3] (setting [12]), 16 µM; in data set [4] (setting [13]), 7.6 µM; in data set [5], 7 µM; in data set [6], 8.4 µM. Further, the GI50 in [7] (setting [14]) was 0.4 to 20 µM; in data set [7] (setting [15]), 2.3 µM; in data set [8] (setting [16]) it was 0.09 to 29 µM; in data set [8] (setting [17]), 0.5 to 24 µM.
